Assay results reported in US5977319A, “Specific binding members for estradiol; materials and methods” (Cambridge Antibody Technology Limited, priority 1997, dated 1999).
Entries after “also recorded” stand apart in the source; their conditions may differ.

Assays:
[1] = test system: antibody D12 single-chain Fv (VH SEQ ID NO:2, VL SEQ ID NO:12); assay: ELISA, inhibition of antibody binding to BSA-estradiol by soluble steroid; set-up: species or system human
Experimental: An ELISA-based screening method was used to rank different clones on the basis of their relative equilibrium dissociation constants for estradiol. In this assay, crude culture supernatant was equilibrated with soluble steroids at a range of concentrations (10 μM, 1 μM, 100 nM and zero estradiol) then applied to ELISA wells coated with […]. Affinity for the soluble steroid was then indicated by a reduction in ELISA signal intensity due to the antibody being in complex with the soluble ligand and unavailable for binding to the plate. This gives a reduction in ELISA signal.
The binding properties of other steroids were investigated by measuring their ability to compete with estradiol for binding to D12 antibody. This was investigated using the ELISA based screening method (Example 2b) and any cross-reacting compounds were investigated further by equilibrium dialysis.
Culture supernatant from the antibody clone D12 was equilibrated with soluble steroid at a range of concentrations from 5 nM to 100 mM (or the limit solubility of the steroid), then transferred to an ELISA plate coated with BSA-estradiol. The ELISA plate was then processed as for a standard phage ELISA assay. Affinity for the soluble competing steroid was then indicated by a reduction in ELISA signal intensity due to the antibody being in complex with the soluble ligand and unavailable for binding to the plate.

[2] = target: antibody D12 single-chain Fv (VH SEQ ID NO:2, VL SEQ ID NO:12; clone 1C with Ala80-Val80 in the lambda light chain); assay: Equilibrium dialysis, competition of steroids with tritium labelled estradiol for antibody D12; type: binding, human; details: for Kd: D12 13.3 nM, 4 nM tritium labelled estradiol, competing steroid 100 nM to 100 μM, competitive inhibition assumed, read-out: affinities (dissociation constants) for cross-reactive steroids
Experimental: Dissociation constants were measured by equilibrium dialysis using conditions described for testosterone and estriol (FIG. 3 and the description of FIG. 3 given below). All steroids were tested at concentrations ranging from 10 nM to their solubility limits in PBS. The dissociation constants of antibody D12 for these compounds were calculated assuming that they were competitive inhibitors of estradiol binding.
Antibody D12 (13.3 nM) was incubated with 4 nM tritium labelled estradiol, plus competing steroid (100 nM to 100 μM). Pooled data from 3 experiments. Equilibrium dialysis was carried out for 20 hr at 22° C. in phosphate buffered saline with a membrane having a 12 kDa exclusion limit.
Antibody D12 (at a concentration of 13.3 nM) was incubated for 2 h with a mixture containing both tritium labelled estradiol (4 nM) and the competing steroid (100 nM to 100 μM), before equilibrium dialysis. The binding of other steroids to D12 antibody was quantified assuming competitive inhibition of estradiol binding. Data was analyzed with proprietary software (FIG.P package: Elsevier Biosoft).

[3] = target: antibody D12 single-chain Fv (VH SEQ ID NO:2, VL SEQ ID NO:12; clone 1C with Ala80-Val80 in the lambda light chain); assay: Equilibrium dialysis, binding of tritium labelled estradiol to antibody D12; set-up: species or system human; details: 22° C., PBS, 20 hr, read-out: dissociation constant for estradiol
Experimental: Antibody diluted 4-fold to 200-fold was incubated with 50 pM tritium labelled estradiol plus unlabelled estradiol giving total estradiol concentrations from 100 pM to 100 μM. […] Equilibrium dialysis was carried out for 20 hr at 22° C. in phosphate buffered saline with a membrane having a 12 kDa exclusion limit.
Equilibrium dialysis was carried out at 22° C. in phosphate-bufferedsaline (PBS) using a microdialyzer (Hoefer) with a membrane having a 12 kDa exclusion limit. […] Antibody diluted 4-fold to 200-fold (from 0.7 nM to 33 nM, based on concentrations calculated from binding data) was incubated with 50 pM labelled estradiol (Amersham, tritium-labelled at positions 2,4,6,7,16,17) plus unlabelled estradiol to give total estradiol concentrations from 100 pM-100 μM. Mixtures were equilibrated for 2 h at 22° C. and dialysed against PBS for 20 h with constant mixing, before taking samples from each chamber for measurement of radioactivity.
Over the range of ligand concentrations necessary for affinity measurement (up to 100 nM), less than 10% of labelled estradiol bound non-specifically. After subtraction of non-specific binding, the dissociation constant (Kd) of estradiol binding to antibody D12 was calculated from equilibrium dialysis data using a non-linear least-squaresfit, assuming a single class of binding sites.

[4] = target: mouse monoclonal antibody DB3; details: read-out: dissociation constant; cited from earlier work
[5] = target: progesterone-binding antibody from a non immunised murine repertoire; details: cited from earlier work
[6] = soluble steroid 5 nM to 100 mM (or the limit solubility of the steroid)

C[C@]12CCC(=O)C[C@@H]1CC[C@@H]1[C@@H]2CC[C@]2(C)[C@@H](O)CC[C@@H]12 [dihydrotestosterone]
inhibition of binding to BSA-estradiol in ELISA ([1]; soluble steroid at 30 μM): showed inhibition
inhibition of binding to BSA-estradiol in ELISA ([1]; soluble steroid at 30 μM, listed as Dihydrotestosterone): inhibited estradiol binding

C[C@]12CC[C@@H]3c4ccc(OS(=O)(=O)O)cc4CC[C@H]3[C@@H]1C[C@@H](O)[C@@H]2O [Estriol-3-sulphate]
inhibition of binding to BSA-estradiol in ELISA ([1]; soluble steroid at 100 μM): inhibited estradiol binding
inhibition of binding to BSA-estradiol in ELISA ([1]; soluble steroid at 100 μM, listed as Estriol-3 sulphate): inhibited only at very high concentrations

CC(C)CCC[C@@H](C)[C@H]1CC[C@H]2[C@@H]3CC=C4C[C@@H](O)CC[C@]4(C)[C@H]3CC[C@]12C [cholesterol]
inhibition of binding to BSA-estradiol in ELISA [1, 6]: neither cholesterol nor estriol-3-β-D-glucuronide inhibited; also recorded: did not show any inhibition

C[C@]12CC[C@@H]3c4ccc(O)cc4CC[C@H]3[C@@H]1C[C@@H](O)[C@H]2O [17-epiestriol]
inhibition of binding to BSA-estradiol in ELISA ([1]; soluble steroid at 100 μM): inhibited estradiol binding; also recorded: inhibited only at very high concentrations

C[C@]12CC[C@@H]3c4ccc(O)cc4CC[C@H]3[C@@H]1C[C@H](O)[C@@H]2O [16-epiestriol]
Kd [2]: 163 µM
inhibition of binding to BSA-estradiol in ELISA ([1]; soluble steroid at 100 μM): inhibited estradiol binding; also recorded: inhibited only at very high concentrations

C[C@]12CC[C@@H]3c4ccc(O[C@@H]5O[C@H](C(=O)O)[C@@H](O)[C@H](O)[C@H]5O)cc4CC[C@H]3[C@@H]1C[C@@H](O)[C@@H]2O [estriol-3-β-D-glucuronide]
inhibition of binding to BSA-estradiol in ELISA [1, 6]: neither cholesterol nor estriol-3-β-D-glucuronide inhibited
inhibition of binding to BSA-estradiol in ELISA ([1]; soluble steroid 5 nM to 100 mM (or the limit solubility of the steroid), listed as Estriol-3-β-D-glucuronide): did not show any inhibition

C[C@]12CC[C@@H]3c4ccc(O)cc4CC[C@H]3[C@@H]1CC[C@@H]2O [estradiol, 1,3,5.estratriene 3,17 β-diol]
Kd [3]: 0.0037 µM

C[C@]12CC[C@@H]3c4ccc(O)cc4CC[C@H]3[C@@H]1C[C@@H](O)[C@@H]2O [Estriol, estriol]
inhibition of binding to BSA-estradiol in ELISA ([1]; soluble steroid at 30 μM): did not inhibit estradiol binding

CC(=O)[C@H]1CC[C@H]2[C@@H]3CCC4=CC(=O)CC[C@]4(C)[C@H]3CC[C@]12C [progesterone]
inhibition of binding to BSA-estradiol in ELISA ([1]; soluble steroid at 100 μM): inhibited estradiol binding; also recorded: inhibited only at very high concentrations
Kd [4]: ~0.001 µM
dissociation constant [5]: only micromolar

C[C@]12CC[C@H]3[C@@H](CCC4=CC(=O)CC[C@@]43C)[C@@H]1CC[C@@H]2O [testosterone]
selectivity for estradiol over the steroid [2]: approximately 1,000 fold
Kd [2]: 15 µM
inhibition of binding to BSA-estradiol in ELISA ([1]; soluble steroid at 30 μM): inhibited estradiol binding; also recorded: showed inhibition
